# Reference: article PMC11484942, “Rumicidins are a family of mammalian host-defense peptides plugging the 70S ribosome exit tunnel” (Nature Communications, 2024)
# How the values were obtained:
# [1] = system: E. coli 1057 R2 (rpoS^Q3stop, macB^N470D); conditions: MHB + 0.9% NaCl
# Outline: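 Broth microdilution (CLSI-based) used 10^6 CFU/mL mid-log cells in MHB with or without added NaCl, and peptides serially diluted in 0.1% BSA at 37 °C. Resistance induction used daily serial passage from sub-MIC wells, followed by 3 drug-free passages before the final MIC.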
# [2] = system: macrophages MΦ1 (THP-1 derived); test: Cytokine response, multiplex xMAP; assay type: cell-based, human; conditions: 2 µM peptide, 24 h
# Description: (§1) The acute monocytic leukemia THP-1 cell line (ATCC TIB-202) was cultured in the complete RPMI 1640 medium (Invitrogen) containing 10% FBS, 1× antibiotic-antimycotic solution (Invitrogen), and 0.05 mM β-mercaptoethanol, in the CO2-incubator (5% CO2, 37 °C). THP-1 cells were differentiated into proinflammatory macrophages (MΦ1) according to the previously reported protocol. Primary peripheral blood mononuclear cells (PBMC) collected from a healthy donor were purchased from ATCC (PCS-800-011), thawed, and seeded into a 96-well plate one day prior to the experiment at a density of 2 × 10^5 cells/well. Two different cell subpopulations (monocytes and T-/B-/NK-lymphocytes) were isolated from PBMC based on their adherence ability. Macrophages MΦ1 were washed out and seeded into 96-well plates at a density of 10^5 cells/well one day prior to the experiment. The next day, medium in each well was replaced by a fresh complete RPMI 1640 medium with or without 2 μM of a tested peptide (rumicidin-1 or LL-37). Cell cultures were kept in a CO2-incubator (5% CO2, 37 °C) for 24 h. Culture supernatants were collected 24 h later and stored at −70 °C degrees less than one week prior to the assessment of analytes. 26 analytes were measured at a protein level by multiplex xMAP technology using the MILLIPLEX MAP Human Cytokine/Chemokine Magnetic Bead Immunology Panel kit (HCYTOMAG-60K-27, Merck): eotaxin-1/CCL11, TGFα, GM-CSF, IFNα2, IFNγ, IL-10, IL-12p40, IL-12p70, IL-15, sCD40L, IL-17A, IL-1RA, IL-1α, IL-9, IL-1β, IL-2, IL-3, IL-4, IL-5, IL-6, IL-7, IL-8/CXCL8, IP-10/CXCL10, RANTES/CCL5, TNFα, TNFβ. Multiplex-based assay read-out was performed using the MAGPIX system (Merck) with the xPONENT 4.2 software (Merck) in accordance with the manufacturer’s instruction with overnight incubation of the samples with primary antibodies. The final analysis was carried out with the MILLIPLEX Analyst v5.1 software (Merck). Measurements were performed twice for each sample. The release of the analytes in control and experimental samples were compared by unpaired two-sample t-test using GraphPad Prism v.8.0.1. The p values ≤ 0.05 were considered significant.
# T-/B-/NK-lymphocytes = test: Cytokine response, multiplex xMAP; assay type: cell-based, human; conditions: 2 µM peptide, 24 h
# Description: as §1
compound,measurement,setting,value
CC[C@H](C)[C@H](NC(=O)[C@H](CCCCN)NC(=O)[C@H](CCC(=O)O)NC(=O)[C@H](CCCCN)NC(=O)[C@H](CO)NC(=O)[C@H](CCCCN)NC(=O)[C@H](CCCNC(=N)N)NC(=O)[C@H](Cc1ccccc1)NC(=O)[C@H](Cc1ccccc1)NC(=O)[C@H](CC(=O)O)NC(=O)CNC(=O)[C@H](CC(C)C)NC(=O)[C@@H](N)CC(C)C)C(=O)NCC(=O)N[C@@H](CCCCN)C(=O)N[C@@H](CCC(=O)O)C(=O)N[C@@H](Cc1ccccc1)C(=O)N[C@@H](CCCCN)C(=O)N[C@@H](CCCNC(=N)N)C(=O)N[C@H](C(=O)N[C@H](C(=O)N[C@@H](CCC(N)=O)C(=O)N[C@@H](CCCNC(=N)N)C(=O)N[C@H](C(=O)N[C@@H](CCCCN)C(=O)N[C@@H](CC(=O)O)C(=O)N[C@@H](Cc1ccccc1)C(=O)N[C@@H](CC(C)C)C(=O)N[C@@H](CCCNC(=N)N)C(=O)N[C@@H](CC(N)=O)C(=O)N[C@@H](CC(C)C)C(=O)N[C@H](C(=O)N1CCC[C@H]1C(=O)N[C@@H](CCCNC(=N)N)C(=O)N[C@H](C(=O)N[C@@H](CCC(=O)O)C(=O)N[C@@H](CO)C(=O)O)[C@@H](C)O)C(C)C)[C@@H](C)CC)C(C)C)[C@@H](C)CC [LL-37],MIC,[1],2 µM
same,GM-CSF,[2],"1,32 pg/ml"
same,IFNa2,[2],"4,35 pg/ml"
same,IFNg,[2],< 1.31 pg/mL
same,IL-1RA,[2],"20,52 pg/ml"
same,IL-1a,[2],< 1.13 pg/mL
same,IL-1b,[2],"10,63 pg/ml"
same,IL-2,[2],< 2.73 pg/mL
same,IL-3,[2],< 3.02 pg/mL
same,IL-4,[2],"38,61 pg/ml"
same,IL-5,[2],< 2.74 pg/mL
same,IL-6,[2],< 2.42 pg/mL
same,IL-7,[2],< 2.06 pg/mL
same,IL-8,[2],1188 pg/mL
same,IL-9,[2],< 3.08 pg/mL
same,IL-10,[2],"6,13 pg/ml"
same,IL-12p40,[2],< 3.69 pg/mL
same,IL-12p70,[2],"0,58 pg/ml"
same,IL-15,[2],"2,42 pg/ml"
same,IL-17A,[2],< 0.94 pg/mL
same,IP-10,[2],"282,01 pg/ml"
same,RANTES,[2],"715,62 pg/ml"
same,TGF-a,[2],< 2.64 pg/mL
same,TNFa,[2],"9,49 pg/ml"
same,TNFb,[2],< 2.85 pg/mL
same,sCD40L,[2],"3,22 pg/ml"
same,GM-CSF,T-/B-/NK-lymphocytes,"0,66 pg/ml"
same,IFNa2,T-/B-/NK-lymphocytes,"7,02 pg/ml"
same,IFNg,T-/B-/NK-lymphocytes,"1,93 pg/ml"
same,IL-1RA,T-/B-/NK-lymphocytes,"6,49 pg/ml"
same,IL-1a,T-/B-/NK-lymphocytes,< 1.13 pg/mL
same,IL-1b,T-/B-/NK-lymphocytes,< 2.88 pg/mL
same,IL-2,T-/B-/NK-lymphocytes,< 2.73 pg/mL
same,IL-3,T-/B-/NK-lymphocytes,< 3.02 pg/mL
same,IL-4,T-/B-/NK-lymphocytes,"51,58 pg/ml"
same,IL-5,T-/B-/NK-lymphocytes,< 2.74 pg/mL
same,IL-6,T-/B-/NK-lymphocytes,< 2.42 pg/mL
same,IL-7,T-/B-/NK-lymphocytes,< 2.06 pg/mL
same,IL-8,T-/B-/NK-lymphocytes,"411,17 pg/ml"
same,IL-9,T-/B-/NK-lymphocytes,< 3.08 pg/mL
same,IL-10,T-/B-/NK-lymphocytes,< 1.47 pg/mL
same,IL-12p40,T-/B-/NK-lymphocytes,< 3.69 pg/mL
same,IL-12p70,T-/B-/NK-lymphocytes,"1,03 pg/ml"
same,IL-15,T-/B-/NK-lymphocytes,< 2.08 pg/mL
same,IL-17A,T-/B-/NK-lymphocytes,< 0.94 pg/mL
same,IP-10,T-/B-/NK-lymphocytes,"120,56 pg/ml"
same,RANTES,T-/B-/NK-lymphocytes,"889,61 pg/ml"
same,TGF-a,T-/B-/NK-lymphocytes,< 2.64 pg/mL
same,TNFa,T-/B-/NK-lymphocytes,"5,23 pg/ml"
same,TNFb,T-/B-/NK-lymphocytes,< 2.85 pg/mL
same,sCD40L,T-/B-/NK-lymphocytes,"3,22 pg/ml"
